Experimental data as given in US20080227128A1, “Resonance Energy Transfer System and Method” (Mount Sinai School of Medicine of New York University, priority 2004, published 2008).
Where two headings read alike, the source gives them in different places. *: point of attachment. Biotin = O=C1N[C@H]2[C@H](CS[C@H]2CCCCC(=O)*)N1

What was measured:
[1] = system: PKA-Ala construct; assay: BRET assay, PKA-Ala construct; format: cell-based, Human
[2] = system: L1-BRET construct; assay: BRET assay, L1-BRET construct transfected in HEK-293 cells; format: cell-based, Human; details: for effect on the BRET ratio of the L1-BRET construct: HEK-293 cells; for effect on the BRET ratio of the L1-BRET construct / effect on the BRET ratio of EGF-stimulated cells: n=5; for effect on the BRET ratio of EGF-stimulated cells: src-family kinase inhibitors; for effect on the decrease in BRET ratio following EGF stimulation: pre-treating cells, genistein 100 μM
[3] = system: […], […], […] variant constructs; format: cell-based, Human
[4] = system: L1-BRET construct in ND7 cells; assay: BRET assay, L1-BRET construct in ND7 cells; format: cell-based
Description: (§1) To confirm that the effects of MEK inhibitors were due to the phosphorylation state of […] (SEQ ID NO: 1), the effect of PD98059 and U0126 was examined on the BRET ratio of the […] (SEQ ID NO: 3), […] (SEQ ID NO: 4), and […] (SEQ ID NO: 5) variant constructs. […] To determine whether components of the MAPK cascade are responsible for phosphorylating the FIGQY (SEQ ID NO: 12) sequence in other cell types, downstream of other RTKs, L1-BRET construct was transiently transfected into ND7 (neuroblastoma) and PC12 (pheochromocytoma) cells (Dunn et al. (1991) Brain Res. 545:80-86; Pang et al. (1995) J. Biol. Chem. 270:13585-13588).

[5] = system: L1-BRET construct in PC12 cells; assay: BRET assay, L1-BRET construct in PC12 cells; format: cell-based, rat; details: pre-treated
Description: as §1

[6] = system: endogenous L1-CAM; assay: Anti-phosphotyrosine immunoblot of endogenous L1-CAM, NGF-stimulated ND7 cells; format: cell-based; details: 100 μM
Experimental: (§2) Near-confluent cultures of HEK-293 cells, stably transfected with either an acceptor-insert-donor construct, or CHIM construct (SEQ ID NO: 2); or ND7 cells were harvested with trypsin-EDTA and resuspended to a density of 6×10^5 cells/ml. Aliquots (5 ml) of cell suspensions were added to 100 mm cell culture dishes (Corning Incorporated Life Sciences, Acton, Mass.) and incubated for 12 hrs at 37° C. Stably transfected HEK-293 cells were treated with genistein for 4 hrs at 37° C; and ND7 cells were treated with 100 μM PD98059 for 1 h and with 100 ng/ml NGF for 15 min. […] The protein concentrations of the supernatants were determined by using the BCA (bicinchoninic acid) protein assay (Pierce Chemical Company, Rockford, Ill.). […] Immobilized protein A beads were washed and resuspended in Laemnuli buffer, analyzed by SDS-PAGE, and transferred to nitrocellulose membrane. […]
To determine whether the MAPK signaling cascade can modulate tyrosine phosphorylation of full-length L1-CAM, the effect of MEK inhibitors was examined on ND7 cells stimulated with NGF. Cell lysates were immunoprecipitated with an anti-L1-CAM Ab and subsequently analyzed by immunoblotting (FIG. 2F) with an anti-phosphotyrosine Ab to detect phosphorylated L1-CAM (upper blot). […]

[7] = system: L1-SLADY BRET; assay: BRET assay, L1-SLADY BRET reporter in HEK-293 cells; format: cell-based, Human
Description: Another MAP kinase pathway reporter was constructed and tested using the methods described above and is outlined in the L1-SLADY BRET Data shown in FIGS. 5A, 5B, and 5C. The results of these figures are consistent with the other MAP kinase pathway data showing that the BRET system can be used as a MAP kinase pathway reporter.

[8] = system: ankyrin B recruitment to the plasma membrane; assay: Ankyrin B recruitment to the plasma membrane (immunofluorescence), HEK-293 cells with L1-CAM and ankyrin-B GFP; format: cell-based, Human
Experimental: HEK-293 cells were transfected with cDNA encoding an amino-terminal myc-epitope tagged full-length wild-type neuronal adhesion protein L1-CAM and a carboxy-terminal GFP-tagged ankyrin B construct using lipofectamine reagents. […] For immunolocalization, cells were fixed for 10 min using 1% (w/v) paraformaldehyde in 60 mM Pipes, 25 mM Hepes, 10 mM EGTA, and 2 mM MgCl2. Staining was performed as described previously (Felsenfeld et al. (1999) Nat. Cell Biol. 1:200-6). Briefly, ankyrin B was detected by indirect immunofluorescence using a rabbit anti-GFP polyclonal Ab and a donkey anti-rabbit Ab conjugated to indodicarbocyanince Cy5. L1-CAM was detected by indirect immunofluorescence using a mouse anti-myc monoclonal Ab and a donkey anti-mouse Ab conjugated to indocarbocyanine Cy3. […] Images were analyzed using NIH ImageJ (National Institutes of Health, Bethesda, Md.). […] Signal maximum for ankyrin staining at the junction between cells was determined at the position of the maximal L1-CAM staining to ensure that membrane rather than juxtamembrane staining was quantified. Minima were determined from the regions of the line overlapping the cytoplasm of either of the two cells. Membrane localization index was determined using the equation index=max/(max-min) as described (Gil et al. (2003) J. Cell Biol. 162:719-30). […]

[9] = system: KGGKY construct; assay: BRET assay, Src pathway reporter (KGGKY construct) in HEK-293 cells; format: cell-based, Human
Experimental: Using a target sequence derived from a tyrosine in the L1-CAM cytoplasmic tail, a reporter was generated encoding a 12 amino acid insert, including a terminal tyrosine ([…], SEQ ID NO: 13). […] However, the Src-family inhibitor PP1 causes an increase in the BRET efficiency at doses above 20 μM while a related inhibitor PP2 has no effect at similar doses (FIG. 9B, results are shown mean±standard deviation, *P<0.01). […] Fibroblasts derived from wild-type (+/+src) or Src-null (−/−src) mice were treated with FGF, which activates indirectly Src-family kinases.

[10] = system: PKA construct; assay: BRET assay, PKA construct in HEK-293 cells; format: cell-based, Human; details: kinase inhibitors
Description: A reporter was generated for PKA based on a target domain derived from fish connexin35 (Mitropoulou et al. (2003) J. Neurosci. Res. 72:147-157). The PKA insert target sequence ([…]) contains a carboxy-terminal serine phosphorylation target.

[11] = system: myr-L1-BRET; assay: BRET assay, myristoylated construct (myr-L1-BRET) in HEK-293 cells; format: cell-based, Human; details: 20 μM U0126
Experimental: (§4) Near-confluent cultures of HEK-293 cells were harvested with trypsin-EDTA (0.05% trypsin, 0.53 mM EDTA; Invitrogen Corporation, Carlsbad, Calif.) and resuspended to a density of 2.5×10^5 cells/ml. Aliquots (200 μl) of cell suspensions were added to white 96-well culture plates (CulturPlate™; PerkinElmer Life Sciences, Boston, Mass.) and incubated for 12 hrs at 37° C. HEK-293 cells were transfected with 0.1 μg of DNA/well using lipofectamine reagents (Lipofectamine Plus and Lipofectamine™; Invitrogen) according to the manufacturer's instructions. After incubation of plates for 48 hrs at 37° C., the cells were washed once with warm Dulbecco's Modified Eagle's Medium (D-MEM) without phenol red (Invitrogen) supplemented with 25 mM Hepes (Invitrogen). […] The plates were immediately counted using the Fusion Universal Microplate Analyzer (PerkinElmer Life Sciences).
(§5) Bioluminescence resulting from Rluc emission was counted at 410 nm using a 370-450 nm band pass filter and the fluorescence of GFP2 was counted at 515 nm using a 500-530 nm band pass filter. The efficiency of energy transfer between Rluc and GFP2 is determined by dividing acceptor emission intensity (GFP2) by donor emission intensity (Rluc). […]

[12] = system: MEK; assay: In vitro kinase assay with purified MEK; format: biochemical; details: for phosphorylation in the presence of purified MEK: substrate
[13] = system: cerebellar granular neurons; assay: Neurite outgrowth assay on Ng-CAM; format: cell-based, mouse; details: 10 μM U0126
Experimental: (§3) Neurite outgrowth experiments were performed as described (Gil et al. (2003) J. Cell Biol. 162:719-30) with slight modification. A 1 cm-diameter circle in a 35 mm petri dish (Becton Dickinson) was coated with poly-L-lysine (5 μg/ml in phosphate-buffered saline (PBS) from Speciality Media, Phillipsburg, N.J.) for 1 hr at room temperature. After several washes with PBS, the coated area was dried under the hood. Aliquots of 1 μl of neural-glial cell adhesion molecule (Ng-CAM, Gil et al. (2003) J. Cell Biol. 162:719-30) at 50 μg/ml or laminin at 30 μg/ml (Becton Dickinson) were spotted on the coated area. Dishes were incubated for 1 hr at room temperature, washed several times with PBS and then blocked with 1% (w/v) bovine serum albumin (BSA). Cerebellar cells were prepared from P2-P4 mouse and plated on the prepared dishes in BME/B27/glucose/glutamine/Pen-Strep media at a cell density of 3×10^5 cells/ml. Peptides and U0126 were diluted in DMSO (10 mg/ml for peptides, 13 mM for U0126) and further diluted in media (final concentration 10 μg/ml peptide; 10 μM U0126) which was added to the cultures when the cells were plated. Cultures were incubated for 2 days and fixed with 4% paraformaldehyde.

[14] = system: cerebellar granular neurons; assay: Neurite outgrowth assay on laminin; format: cell-based, mouse; details: 10 μM U0126
Experimental: as §3

[15] = system: myr-FIGQH, myr-FIGQF; details: 20 μM U0126; tyrosine mutated to histidine or phenylalanine
Experimental: as §4, §5

[16] = system: L1-BRET protein; assay: Anti-phosphotyrosine immunoblot of L1-BRET protein, stably transfected HEK-293 cells; format: cell-based, Human; details: pretreated with genistein 100 μM
Experimental: as §2
Immunoblot analysis was performed (FIG. 1G). Cell lysates were immunoprecipitated with an anti-GFP Ab and subsequently analyzed by immunoblotting with an anti-phosphotyrosine Ab to detect phosphorylated BRET constructs (upper blot). […] There was no phosphotyrosine detected in the CHIM construct (SEQ ID NO: 2) in the presence or absence of genistein, consistent with the idea that phosphorylation of the FIGQY (SEQ ID NO: 12) tyrosine is responsible for the changes observed in the spectrum of L1-BRET.

For `Nc1ncnc2c1ncn2[C@@H]1O[C@@H]2COP(O)(=S)O[C@H]2[C@H]1O` (single isomer, unassigned) [Sp-cAMPs, Adenosine-3′,5′-cyclic monophosphorothioate, Sp-isomer], the “effect on BRET ratio, serine mutated to alanine” value [1] was “has no effect”.

`COc1cccc(-c2cc(=O)c3ccccc3o2)c1N` [PD98059] was tested, and the “effect on the BRET ratio of the L1-BRET construct” value [2] was “increased the BRET ratio of the L1-BRET construct in a dose-dependent manner”, the “change in the BRET ratio of the variant constructs with MEK inhibitors” value [3] was “no change in the BRET ratio” and the “change in the BRET ratio of the L1-BRET construct in ND7 cells” value (from here on “change in the BRET ratio … in ND7 cells”) [4] was “increases in the BRET ratio”. The “change in the BRET ratio of the L1-BRET construct in PC12 cells” value [5] was “increases in the BRET ratio”, the “level of tyrosine phosphorylation of endogenous L1-CAM” value [6] was “marked decrease in the level of tyrosine phosphorylation” and the “effect on the decrease in BRET ratio (FIG. 5A, 5B)” value [7] was “reverses the decrease in BRET ratio”. For the same compound, the “effect on the EGF-induced decrease in ankyrin B recruitment” value ([8]; 100 μM PD98059 with 100 ng/ml EGF) was “reversed” and the “effect on this reporter” value ([9]; 100 μM) was “no detectible effect”.

`Cc1ccc(-c2nn(C(C)(C)C)c3ncnc(N)c23)cc1` [PP1] was tested, and the “effect on the BRET ratio of EGF-stimulated cells” value [2] was “had no effect on the BRET ratio”, the “doses causing an increase in the BRET efficiency” value ([9]; dose response) was “above 20 μM” and the “effect on FRET efficiency of the PKA reporter” value [10] was “had no effect on FRET efficiency”.

With `CC(C)(C)n1nc(-c2ccc(Cl)cc2)c2c(N)ncnc21` [PP2] the “effect on the BRET ratio of EGF-stimulated cells” value [2] was “had no effect on the BRET ratio” and the “effect on BRET efficiency at similar doses” value ([9]; doses similar to PP1 (above 20 μM)) was “has no effect”.

With `N#CC(=C(/N)Sc1ccccc1N)/C(C#N)=C(\N)Sc1ccccc1N` [U0126] the “effect on the BRET ratio of the L1-BRET construct” value [2] was “increased the BRET ratio of the L1-BRET construct in a dose-dependent manner”, the “change in the BRET ratio of the variant constructs with MEK inhibitors” value ([3]; 100 μM) was “no change in the BRET ratio” and the “change in BRET ratio of the myristoylated construct following inhibition of MEK” value [11] was “increase in BRET ratio”. For the same compound, the “change in the BRET ratio … in ND7 cells” value [4] was “increases in the BRET ratio”, the “change in the BRET ratio of the L1-BRET construct in PC12 cells” value [5] was “increases in the BRET ratio” and the “effect on the increase in phosphorylation of MEKSBS and […] peptide” value ([12]; purified MEK) was “inhibited”. The mean neurite length [13] was “reduces mean neurite length”, the “axon growth on laminin” value [14] was “inhibited” and the “change in BRET ratio of mutated myristoylated constructs following inhibition of MEK” value [15] was “abolishes the increase in BRET ratio”.

With `O=c1c(-c2ccc(O)cc2)coc2cc(O)ccc12` [daidzein] the “effect on the decrease in BRET ratio following EGF stimulation” value [2] was “had no effect”.

With `COC(=O)C=Cc1cc(O)ccc1O` [erbstatin analog, methyl 2,5-dihydroxycinnamate] the “effect on the BRET ratio of the L1-BRET construct” value [2] was “increased the BRET ratio of the L1-BRET construct in a dose-dependent manner”.

In the case of `O=c1c(-c2ccc(O)cc2)coc2cc(O)cc(O)c12` [genistein], the “effect on the decrease in BRET ratio following EGF stimulation” value [2] is reported as “reversed”, the “change in the BRET ratio … in ND7 cells” value [4] is reported as “increase in the BRET ratio” and the “tyrosine phosphorylation of L1-BRET protein” value [16] is reported as “completely inhibited”. For the same compound, the “effect on the decrease in BRET ratio (FIG. 5A, 5B)” value [7] was “reversing the decrease in BRET ratio” and the “effect on EGF-dependent decrease in BRET efficiency” value ([9]; 100 μM genistein, 100 ng/ml EGF) was “reversed”.

In the case of Biotin-ADPDHDHTGFLTEYVATRW-OH [MEKSBS], the “phosphorylation in the presence of purified MEK” value [12] is reported as “phosphorylated”.

“EGF: Epidermal growth factor (EGF), obtained from Sigma-Aldrich” was tested, and the “level of ankyrin B recruited to the plasma membrane” value ([8]; 100 ng/ml EGF) was “decrease in the level of ankyrin B recruited to the plasma membrane”.

“KPLGSDDSLADY [L1-derived peptide phosphorylated by purified MEK]” was tested, and the “phosphorylation in the presence of purified MEK” value [12] was “phosphorylated”.
